# Assays:
# Type in all cases: cell-based
# IL-6 = IL-6 secretion from purified human monocytes; parameters: key: NE: No effect; INHIB: Inhibition; STIM: Stimulation; IC40: 40% Inhibitory Concentration; EC50: 50% Effective Concentration; TC: Tolerated Concentration; IA: Interferes with Assay
# Experimental: This assay determines the effect of test compounds on the secretion of IL-6 from purified human monocytes. Compounds are tested for their ability to downregulate the production of IL-6 in activated monocytes, or upregulate secretion of IL-6 in unstimulated monocytes. Test compounds are incubated for sixteen hours with purified human monocytes at four dilutions over a range of three log10 concentrations. Where appropriate, lipopolysaccharide (LPS) is used to stimulate the monocytes.
# The level of IL-6 in the resultant supernatants is quantitated in a solid phase Enzyme-linked Immunoassay (EIA) performed in a 96 well format. IL-6 present in the samples is captured by a specific monoclonal antibody immobilized on the well, and probed with an anti-IL-6 polyclonal antibody conjugated to horseradish peroxidase, followed by an appropriate substrate. The levels of IL-6 are determined by interpolation of the resultant color change in the substrate from a standard curve. All supernatants are tested in duplicate with controls and standards.
# GM-CSF = GM-CSF expression from purified human monocytes; parameters: key: NE: No effect; INHIB: Inhibition; STIM: Stimulation; IC40: 40% Inhibitory Concentration; EC50: 50% Effective Concentration; TC: Tolerated Concentration; IA: Interferes with Assay
# Experimental: This assay determines the effect of test compounds on the expression of GM-CSF from purified human monocytes. Compounds are tested for their ability to downregulate the production of GM-CSF in activated monocytes, or upregulate secretion of GM-CSF in unstimulated monocytes. Test compounds are incubated for sixteen hours with purified human monocytes at four dilutions over a range of three log10 concentrations. Where appropriate, lipopolysaccharide (LPS) is used to stimulate the monocytes.
# The level of GM-CSF in the resultant supernatants is quantitated in a solid phase Enzyme-linked Immunoassay (EIA) performed in a 96 well format. GM-CSF present in the samples is captured by a specific monoclonal antibody immobilized on the well, and probed with an anti-GM-CSF polyclonal antibody conjugated to horseradish peroxidase, followed by an appropriate substrate. The levels of GM- CSF are determined by interpolation of the resultant color change in the substrate from a standard curve. All supernatants are tested in duplicate with controls and standards.
# superoxide anion = test: Superoxide anion release from purified human monocytes; parameters: key: NE: No effect; INHIB: Inhibition; STIM: Stimulation; IC40: 40% Inhibitory Concentration; EC50: 50% Effective Concentration; TC: Tolerated Concentration; IA: Interferes with Assay; conditions: zymosan
# Experimental: (§1) This assay measures the ability of the test compound to modulate the ability of purified human monocytes to release superoxide anions in response to a zymosan. Compounds are tested at four dilutions over a range of three log10 concentrations. Monocyte-compound cultures are treated with zymosan to stimulate anion production. The amount of superoxide anion produced is determined by the culture's ability to reduce cytochrome C, as measured colorimetrically. The assay is carried out in a 96-well format in triplicate and results are expressed in relation to baseline unstimulated and maximum controls. Appropriate reference controls are run with each assay.
# as §1, with “minimum” for “maximum”
# TxA2 = TxA2 production by purified human monocytes; parameters: key to EFFECT on TxA2: NE: No effect; INHIB: Inhibition; STIM: Stimulation; IC40: 40% Inhibitory Concentration; EC50: 50% Effective Concentration; TC: Tolerated Concentration; IA: Interferes with Assay
# Experimental: This procedure measures the ability of test compounds to modulate the amount of TxA2 (the major cyclo-oxygenase product) produced by purified human monocytes. Compounds are tested for their ability to downregulate the secretion of TxA2 from activated monocytes, or upregulate secretion of TxA2 from unstimulated monocytes. Test compounds are incubated for ninety minutes with purified human monocytes at four dilutions over a range of three log10 concentrations. Where appropriate, zymosan is used to stimulate the monocytes.
# The level of TxA2 in the resultant supernatants is quantitated by immunoassay performed in a 96 well format. TxA2 levels modulated by unknown compounds are determined by interpolation from a standard curve. All compounds are tested in duplicate with controls and standards.
# [1] = system: adhesion of purified human monocytes to human umbilical vein endothelial cell (HUVEC) cultures; test: Adhesion of purified human monocytes to HUVEC cultures; parameters: key: NE: No effect; INHIB: Inhibition; STIM: Stimulation; IC40: 40% Inhibitory Concentration; EC50: 50% Effective Concentration; TC: Tolerated Concentration; IA: Interferes with Assay; conditions: STIMULATED
# Experimental: This assays measures the ability of test compounds to modulate adhesion of purified human monocytes to human umbilical vein endothelial cell (HUVEC) cultures. HUVECs are cultured to confluence in 96-well plates. Purified human monocytes are labelled with fluorescent dye. Triplicate cultures of HUVECs and monocytes are treated with four dilutions of test compound over a range of three log10 concentrations, in addition to stimulated and unstimulated controls. One hour after treatment, TNFα is added to HUVEC cultures to stimulate production of adhesion molecules. After a twelve hour incubation, the treated monocytes are added to their corresponding HUVEC cultures and incubated for ten minutes. The stimulation index (S.I.) is determined by comparing the fluorescence of treated cultures to untreated controls using a fluorometric readout in a 96-well format.
# [2] = system: normal human mononuclear cells; test: Two Way Mixed Lymphocyte Reaction; parameters: key: NE: No effect; INHIB: Inhibition; STIM: Stimulation; IC40: 40% Inhibitory Concentration; EC50: 50% Effective Concentration; TC: Tolerated Concentration; IA: Interferes with Assay
# Experimental: The purpose of this procedure is to determine the effect of test compounds on Mixed Lymphocyte Reaction and Mitogen-Induced Proliferation of normal human mononuclear cells.
# Procedure for Two Way Mixed Lymphocyte Reaction: PBMNC from two different donors are added to a 96-well cell culture plate. Four dilutions of test compounds, over a range of three log10 in quadruplicate, along with negative and inhibitory controls are then added to the plate and incubated for six days. Cultures are subsequently pulsed, harvested, and counted as above.
smiles,measurement,setting,value
"CCCCCCCCCCCCCC/C=C\CC[C@@H]1OC(=O)C(O)=C1O [(S)-3,4-Dihydroxy-5-[(Z)-3-octadecenyl]-2(5H)-furanone]",EFFECT on IL6,IL-6; STIMULATED,NE
same,EFFECT on IL6,IL-6; UNSTIMULATED,NE
same,EFFECT on GMCSF,GM-CSF; STIMULATED,NE
same,EFFECT on GMCSF,GM-CSF; UNSTIMULATED,NE
same,EFFECT on SUPEROXIDE,superoxide anion,IA
same,EC50,"TxA2; Homo sapiens, Monocyte, STIMULATED, INHIB",5 µM
same,EFFECT on TxA2,TxA2; STIMULATED,INHIB
same,EFFECT on TxA2,TxA2; UNSTIMULATED,NE
same,EFFECT on ADHESION,[1],NE
same,EFFECT on MLR,[2],NE
